This note sets out measurements from patent US10350158B2, “2′ fluoro-modified RNAs as immunostimulators” (DUKE UNIVERSITY, priority 2013, dated 2019).

In one series the test system is WM266-4 cells. The series is classed as cell-based. Conditions: MTT. The procedure: (§1) For the intracellular delivery of immune stimulatory RNAs, RNAs were transfected with the DharmaFECT® Duo liposomal transfection reagent (Thermo Scientific, Waltham, Mass.) at a transfection reagent (μl):RNA (μg) ratio of 3.75:1, according to the manufacturer's instructions. Unless otherwise stated, for the induction of innate immune responses and apoptosis, immune stimulatory RNAs (500 ng/ml) were transfected into 50 to 70% confluent cells. Cells were incubated with an RNA-transfection agent complex for 5 h, followed by replenishment with fresh culture medium. To electroporate cells, 1×10^5 cells suspended in 200 μl Opti-MEM I (Invitrogen) were mixed with 1 μg of immune stimulatory RNAs or 5 μg of 2′Fluoro pyrimidine ribonucleoside triphosphate in 2-mm cuvettes and were electroporated at 300 V for 500 μs using an Electro Square Porator ECM 830 (BTX, San Diego, Calif.). For the knockdown of RNA-sensing PRRs, cells were transfected with PRR-specific siRNAs (25 nM) twice at 2-day intervals using DharmaFECT®-1 (Thermo Scientific). At 5 h after the second siRNA transfection, cells were harvested, replated into a 96-well plate and incubated overnight. Cells were then treated with immune stimulatory RNA transfections. Staurosporine (2 μM) (Sigma, St Louis, Mo.) and recombinant human IFNβ (20 ng/ml) (PeproTech, Rocky Hill, N.J.) were used as positive controls of anti-melanoma cytotoxicity. B18R (100 ng/ml) (eBioscience, San Diego, Calif.) was added directly to the growth media of cells to neutralize IFNβ.
Growth inhibition relative to untreated cells was quantified at 72 h after RNA transfection using an MTT Cell Proliferation Assay Kit (Cayman Chemicals, Ann Arbor, Mich.), according to the manufacturer's instructions. The percent growth inhibition was calculated by using the following equation: % growth inhibition=([O.D.]untreated−[O.D.]treated)/[O.D.]untreated×100. The induction of cell death was measured 48 h after RNA transfection by flow cytometry after staining with Annexin V-PE and 7-Aminoactinomycin D (7-AAD) using the PE Annexin V Apoptosis Detection Kit I (BD Biosciences, San Jose, Calif.) and analyzed using the CellQuest software (BD Biosciences).

A further series has as its system IFNβ. In words: IFNβ ELISA of transfected melanoma cell supernatants. Conditions: IFNβ ELISA. The series is classed as cell-based, human. The procedure: as §1, with “2'Fluoro” for “2′Fluoro”, “B18R” left out, “IFNβ. Cells were transfected with RNAs as described above. At 24 hours after RNA transfection, culture supernatants were collected and stored at -80° C. for later analyses. The production of human IL-8 was analyzed with a human IL-8 ELISA kit (eBioscience). IFN-β production was determined with a human IFN-β ELISA kit (PBL Biomedical Laboratories, Piscataway, N.J.) by following the manufacturer's instructions.” for “IFNβ.”
A general note: An ELISA detects its analyte on a solid surface through an enzyme-linked reagent.

Strand notation (5' to 3'): a small letter for the sugar, then the base; units joined by * are phosphorothioate-linked, units joined directly phosphodiester-linked; [ ] holds rarer units or linkages, { } end groups; capitals alone tell only the bases. {ppp} = triphosphate; r = 2'-OH (RNA); f = 2'-fluoro

“Motif 1: 29-mer 5′ppp-2′F ssRNA, 5′overhang stem-loop, first 29 nucleotides of 10F, SEQ ID NO: 14 ({ppp}-rGrGrGrArGrGrAfCrGrAfUrGfCrGrGfUrAfCfCfUrGrAfCrArGfCrAfUfC)”: in the series on WM266-4 cells, the “cytotoxicity compared to 10F treatment, in words” value is reported as “significantly lower”. In the series on IFNβ, the “IFNβ induction compared to 10F treatment, in words” value is “significantly lower”.

For the substance “Motif 1A: 37-mer extended variant of Motif 1 with longer 5′overhang, SEQ ID NO: 15 ({ppp}-rGrGrGfUrArArGfUrGrGrGrArGrGrAfCrGrAfUrGfCrGrGfUrAfCfCfUrGrAfCrArGfCrAfUfC)”, the “cytotoxic effect compared to treatment with Motif 1” value in the series with WM266-4 cells was “significantly decreased”. The “IFNβ production compared to treatment with Motif 1” value in the series with IFNβ is recorded as “significantly decreased”.

Regarding “Motif 3: 30-mer extended variant of Motif 2, 3′overhang stem-loop, SEQ ID NO: 17 ({ppp}-rGrGrAfUrGfCrGrGfUrAfCfCfUrGrAfCrArGfCrAfUfCfUfUrGrArArAfUrA)”, in the series with WM266-4 cells, the “cytotoxicity compared to 10F treatment, in words” value is reported as “not statistically significant”. Moreover, the “IFNβ induction compared to 10F treatment, in words” value in the series with IFNβ is reported as “not statistically significant”.

“Poly(U)30: 5′ppp-2′F ssRNA of 30 uridines, minimal secondary structure, SEQ ID NO: 13 (UUUUUUUUUUUUUUUUUUUUUUUUUUUUUU; 5'-triphosphate, 2'-fluoro modifications; Synthetic RNA Aptamer Poly(U)30)”: the “growth inhibition / cytotoxicity (anti-melanoma effect), in words” value with WM266-4 cells (liposomal transfection, 72 h) is recorded as “not”.
